Test system: OVCAR-5 complex spheroid (HUVEC/MSC), viability % T/C
Assay: Anticancer human tumor OVCAR-5 cell line growth inhibition [Asc];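 also: spheroids exposed to agents for 7 days before readout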;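 as to viability, T/C: 100% = DMSO vehicle-treated wells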
Conditions: for IC50: curve of first compound; for viability, T/C: stronger effect = lower value
Protocol: Multicellular complex tumor spheroid response to apoptosis pathway targeting inhibitors Alrizomadlin, Pelcitoclax, and Dasminapant in combination with a variety of drugs and investigational agents in selected tumor cell lines
The MDM2 inhibitor alrizomadlin, the Bcl-2/Bcl-xL inhibitor pelcitoclax, and the IAPs inhibitor dasminapant were evaluated both individually and in combination with standard of care and investigational anticancer small molecules within a complex spheroid model of solid tumors. . Complex spheroids include a stromal component modeled by human endothelial cells (HUVEC) and fibroblasts modeled by human mesenchymal stem cells (MSCs). The concentration ranges selected for each drug and investigational agent were based upon clinically achievable concentrations if the clinical Cmax of the agent was known.
Compounds. The drugs and investigational agents: alrizomadlin (APG-115; NSC831270), pelcitoclax (APG-1252; NSC835773), dasminapant (APG-1387;NSC834197), TAK-243 (NSC785004), copanlisib (NSC809693), olaparib (NSC753686), talazoparib (NSC767125), cobimetinib (NSC 768068), eltanexor (KPT-8602, NSC 794443), abemaciclib (NSC 768073), sotorasib (NSC818433), adagrasib (NSC 831453), MRTX-1133 (NSC 836407), Iadademestat (ORY1001, NSC 806812), and RMC-4630 (NSC839698), were obtained from the NCI Developmental Therapeutics Program Chemical Repository. The FDA-approved anticancer drug set is available from the Developmental Therapeutics Program at https://dtp.cancer.gov/organization/dscb/obtaining/available plates.htm. […] The stock solutions were prepared in dimethyl sulfoxide (DMSO, Sigma-Aldrich, St. Louis, MO, cat. D2650) at 800-fold the tested concentration and stored at -70 degrees C prior to their use. All drugs and investigational agents were tested over a range starting from a high concentration at or near the clinical Cmax and decreasing in half-log increments. If the clinical Cmax for an agent had not been determined, the highest concentration tested was 10 microM.
The patient-derived cancer (PDC) cell lines include five colon adenocarcinomas: 186277-243-T-J2-PDC, 616215-338-R-J1-PDC, 439559-082-T-J2-PDC, 463943-066-T-J2-PDC, and 519858-162-T-J1-PDC; three pancreatic carcinomas: 323965-272-R-J2-PDC, 521955-158-R6-J3-PDC, and 521955-158-R2-J5-PDC; two uterine sarcomas: 327498-152-R-J2-PDC and 993429-296-R-J1-PDC; two rhabdomyosarcomas: 755483-174-R-J1-PDC and 772245-204-R-J1-PDC; two soft tissue sarcomas: 126254-015-R-J1-PDC and 494315-158-R-J1-PDC; two malignant fibrous histiocytomas: 317291-083-R-J1-PDC and 596521-263-R-J1-PDC; two breast carcinomas: 171881-019-R-J1-PDC and 885512-296-R-J2-PDC; and one ovarian carcinoma: 6556581-035-R-J-PDC were obtained from the NCI PDMR, (https://pdmr.cancer.gov). The established cell lines HSSY-2 synovial sarcoma (RRID:CVCL 8719), SYO-1 synovial sarcoma (RRID:CVCL_7146), MPNST malignant peripheral neural sheath tumor were obtained from the Sloan Kettering Institute. The following established cell lines were purchased from the American Type Culture Collection (ATCC, Manassas, VA), Sor the received from the NCI repository:, PANC-1 pancreatic carcinoma (CRL-1469, RRID:CVCL_0480), OVCAR-5 ovarian carcinoma (RRID:CVCL_1628), OVCAR-8 ovarian carcinoma (RRID:CVCL_1629), , MCF-7 breast carcinoma (CRL-12584, RRID:CVCL_0031), MDA-MB-231 breast carcinoma (CRL-12532, RRID:CVCL_0062), NCI-H1876 small cell lung carcinoma (CRL-5902, RRID:CVCL_1503), NCI-H510A small cell lung carcinoma (HTB-184, RRID:CVCL_1565), NCI-H1417 (CRL-5869, RRID:CVCL_1469), and NCI-H196 small cell lung carcinoma (CRL-5823, RRID:CVCL_1509). Dr. Peter Houghton (Greehey Children's Cancer Research Institute, University of Texas Health Science Center, San Antonio, TX) provided Rh-18 rhabdomyosarcoma (RRID:CVCL_1659). Pooled donor human umbilical vein endothelial cells (HUVEC, Lonza, cat. CC-2519) and human mesenchymal stem cells (hMSC, Lonza, cat. PT-2501) were purchased from Lonza (Walkersville, MD).
Cell Culture. […]

[1] = second compound 0.03 µM, first compound 0.00316 µM
[2] = second compound 0.03 µM, first compound 0.01 µM
[3] = second compound 0.03 µM, first compound 0.0316 µM
[4] = second compound 0.03 µM, first compound 0.1 µM
[5] = second compound 0.0949 µM, first compound 0.00316 µM
[6] = second compound 0.0949 µM, first compound 0.01 µM
[7] = second compound 0.0949 µM, first compound 0.0316 µM
[8] = second compound 0.0949 µM, first compound 0.1 µM
[9] = second compound 0.3 µM, first compound 0.00316 µM
[10] = second compound 0.3 µM, first compound 0.01 µM
[11] = second compound 0.3 µM, first compound 0.0316 µM
[12] = second compound 0.3 µM, first compound 0.1 µM
[13] = second compound 0.949 µM, first compound 0.00316 µM
[14] = second compound 0.949 µM, first compound 0.01 µM
[15] = second compound 0.949 µM, first compound 0.0316 µM
[16] = second compound 0.949 µM, first compound 0.1 µM
[17] = second compound 3 µM, first compound 0.00316 µM
[18] = second compound 3 µM, first compound 0.01 µM
[19] = second compound 3 µM, first compound 0.0316 µM
[20] = second compound 3 µM, first compound 0.1 µM

Molecule `CCN1CCN(Cc2ccc(Nc3ncc(F)c(-c4cc(F)c5nc(C)n(C(C)C)c5c4)n3)nc2)CC1` + CCN1C(C(=O)NC23CCC(C(=O)O)(CC2)CC3)C(c2cccc(Cl)c2F)C2(C(=O)Nc3cc(Cl)ccc32)C12CCCCC2 has an IC50 (second compound 0.03 µM) of over 1000 nM, an IC50 (second compound 0.0949 µM) of over 1000 nM and an IC50 (second compound 0.3 µM) of over 1000 nM. For the same molecule, the IC50 (second compound 0.949 µM) was over 1000 nM, the IC50 (second compound 3 µM) was over 1000 nM and the viability, T/C [1] was 85.1%. For the same molecule, the viability, T/C [2] was 93.5%, the viability, T/C [3] was 68.1% and the viability, T/C [4] was 64.7%. The viability, T/C (second compound 0.03 µM, first compound 0.316 µM) was 65.4%, the viability, T/C (second compound 0.03 µM, first compound 1 µM) was 56.5% and the viability, T/C [5] was 98.2%. The viability, T/C [6] was 91.8%, the viability, T/C [7] was 67.2% and the viability, T/C [8] was 66.1%. The viability, T/C (second compound 0.0949 µM, first compound 0.316 µM) was 61%, the viability, T/C (second compound 0.0949 µM, first compound 1 µM) was 62.8% and the viability, T/C [9] was 102%. For the same molecule, the viability, T/C [10] was 86.5%, the viability, T/C [11] was 77.7% and the viability, T/C [12] was 59.9%. For the same molecule, the viability, T/C (second compound 0.3 µM, first compound 0.316 µM) was 68.3%, the viability, T/C (second compound 0.3 µM, first compound 1 µM) was 62.4% and the viability, T/C [13] was 85.9%. The viability, T/C [14] was 92.3%, the viability, T/C [15] was 74.2% and the viability, T/C [16] was 65.1%. For the same molecule, the viability, T/C (second compound 0.949 µM, first compound 0.316 µM) was 69.1%, the viability, T/C (second compound 0.949 µM, first compound 1 µM) was 62.4% and the viability, T/C [17] was 106%. For the same molecule, the viability, T/C [18] was 99.1%, the viability, T/C [19] was 85.4% and the viability, T/C [20] was 65.6%. The viability, T/C (second compound 3 µM, first compound 0.316 µM) was 65.5% and the viability, T/C (second compound 3 µM, first compound 1 µM) was 64.2%.

In the case of `NC(=O)C(=Cn1cnc(-c2cc(C(F)(F)F)cc(C(F)(F)F)c2)n1)c1cncnc1` + CCN1C(C(=O)NC23CCC(C(=O)O)(CC2)CC3)C(c2cccc(Cl)c2F)C2(C(=O)Nc3cc(Cl)ccc32)C12CCCCC2, the IC50 (second compound 0.03 µM) is reported as 299 nM, the IC50 (second compound 0.0949 µM) is reported as over 300 nM and the IC50 (second compound 0.3 µM) is reported as 256 nM. It also gave an IC50 (second compound 0.949 µM) of over 300 nM, an IC50 (second compound 3 µM) of 216 nM and a viability, T/C (second compound 0.03 µM, first compound 0.000949 µM) of 95.8%. For the same molecule, the viability, T/C (second compound 0.03 µM, first compound 0.003 µM) was 85.5%, the viability, T/C (second compound 0.03 µM, first compound 0.00949 µM) was 82.1% and the viability, T/C (second compound 0.03 µM, first compound 0.03 µM) was 76.5%. The viability, T/C (second compound 0.03 µM, first compound 0.0949 µM) was 71.2%, the viability, T/C (second compound 0.03 µM, first compound 0.3 µM) was 48.1% and the viability, T/C (second compound 0.0949 µM, first compound 0.000949 µM) was 93.9%. For the same molecule, the viability, T/C (second compound 0.0949 µM, first compound 0.003 µM) was 99.9%, the viability, T/C (second compound 0.0949 µM, first compound 0.00949 µM) was 81.9% and the viability, T/C (second compound 0.0949 µM, first compound 0.03 µM) was 67.3%. The viability, T/C (second compound 0.0949 µM, first compound 0.0949 µM) was 67.8%, the viability, T/C (second compound 0.0949 µM, first compound 0.3 µM) was 48.2% and the viability, T/C (second compound 0.3 µM, first compound 0.000949 µM) was 79.1%. For the same molecule, the viability, T/C (second compound 0.3 µM, first compound 0.003 µM) was 95.8%, the viability, T/C (second compound 0.3 µM, first compound 0.00949 µM) was 86.9% and the viability, T/C (second compound 0.3 µM, first compound 0.03 µM) was 72%. For the same molecule, the viability, T/C (second compound 0.3 µM, first compound 0.0949 µM) was 70.2%, the viability, T/C (second compound 0.3 µM, first compound 0.3 µM) was 46.7% and the viability, T/C (second compound 0.949 µM, first compound 0.000949 µM) was 103%. The viability, T/C (second compound 0.949 µM, first compound 0.003 µM) was 108%, the viability, T/C (second compound 0.949 µM, first compound 0.00949 µM) was 87.4% and the viability, T/C (second compound 0.949 µM, first compound 0.03 µM) was 81.4%. It also gave a viability, T/C (second compound 0.949 µM, first compound 0.0949 µM) of 66.2%, a viability, T/C (second compound 0.949 µM, first compound 0.3 µM) of 53.3% and a viability, T/C (second compound 3 µM, first compound 0.000949 µM) of 98.5%. For the same molecule, the viability, T/C (second compound 3 µM, first compound 0.003 µM) was 96.7%, the viability, T/C (second compound 3 µM, first compound 0.00949 µM) was 80% and the viability, T/C (second compound 3 µM, first compound 0.03 µM) was 69.7%. For the same molecule, the viability, T/C (second compound 3 µM, first compound 0.0949 µM) was 61.8% and the viability, T/C (second compound 3 µM, first compound 0.3 µM) was 45.4%.

`NC1CCC(NC2CC2c2ccccc2)CC1` (stereo not given) + CCN1C(C(=O)NC23CCC(C(=O)O)(CC2)CC3)C(c2cccc(Cl)c2F)C2(C(=O)Nc3cc(Cl)ccc32)C12CCCCC2 gave an IC50 (second compound 0.03 µM) of over 100 nM, an IC50 (second compound 0.0949 µM) of over 100 nM and an IC50 (second compound 0.3 µM) of over 100 nM. It also gave an IC50 (second compound 0.949 µM) of over 100 nM, an IC50 (second compound 3 µM) of over 100 nM and a viability, T/C (second compound 0.03 µM, first compound 0.000316 µM) of 98.4%. It also gave a viability, T/C (second compound 0.03 µM, first compound 0.001 µM) of 90.7%, a viability, T/C [1] of 88.6% and a viability, T/C [2] of 85.9%. It also gave a viability, T/C [3] of 97.3%, a viability, T/C [4] of 89.8% and a viability, T/C (second compound 0.0949 µM, first compound 0.000316 µM) of 89.9%. For the same molecule, the viability, T/C (second compound 0.0949 µM, first compound 0.001 µM) was 100%, the viability, T/C [5] was 88.5% and the viability, T/C [6] was 82.5%. For the same molecule, the viability, T/C [7] was 93%, the viability, T/C [8] was 85.7% and the viability, T/C (second compound 0.3 µM, first compound 0.000316 µM) was 89.9%. The viability, T/C (second compound 0.3 µM, first compound 0.001 µM) was 90.9%, the viability, T/C [9] was 93.2% and the viability, T/C [10] was 77.5%. It also gave a viability, T/C [11] of 94.3%, a viability, T/C [12] of 97.3% and a viability, T/C (second compound 0.949 µM, first compound 0.000316 µM) of 89.4%. For the same molecule, the viability, T/C (second compound 0.949 µM, first compound 0.001 µM) was 97.9%, the viability, T/C [13] was 97.6% and the viability, T/C [14] was 88.9%. The viability, T/C [15] was 85.5%, the viability, T/C [16] was 95.2% and the viability, T/C (second compound 3 µM, first compound 0.000316 µM) was 102%. It also gave a viability, T/C (second compound 3 µM, first compound 0.001 µM) of 99.6%, a viability, T/C [17] of 105% and a viability, T/C [18] of 83.7%. For the same molecule, the viability, T/C [19] was 89.5% and the viability, T/C [20] was 91.5%.
